According to US20090253634A1, “Methods and Compositions for the Treatment of Gastrointestinal Disorders” (MICROBIA, INC., priority 2005, published 2009):
Like-named read-outs stand apart in the source and are kept apart here. Bridge positions count the residues as written; N and C are the ends. Peptide text beside a SMILES is read from it.

Assays:
[1] = oral bioavailability in rats, LCMS detection; type: in vivo; settings: for AUC / bioavailability: rat, plasma, 10 mg/kg; for bioavailability: oral, read-out: 6 h bioavailability determined by circulating plasma levels
Protocol: Similarly, oral bioavailabity was determined in rats using LCMS methodology. Rat plasma samples containing SEQ ID NO:3 and/or SEQ ID NO:6 were extracted using a Waters Oasis MAX 96 well solid phase extraction (SPE) plate. A 200 μL volume of rat plasma was mixed with 200 μL of ^13C9, ^15N—SEQ ID NO:3 in the well of a prepared SPE plate. The samples were drawn through the stationary phase with 15 mm Hg vacuum. All samples were rinsed with 200 μL of 2% ammonium hydroxide in water followed by 200 μL of 20% methanol in water. The samples were eluted with consecutive 100 μL volumes of 5/20/75 formic acid/water/methanol and 100 μL 5/15/80 formic acid/water/methanol. The samples were dried under nitrogen and resuspended in 100 μL of 20% methanol in water. Samples were analyzed by a Waters Quattro Micro mass spectrometer coupled to a Waters 1525 binary pump with a Waters 2777 autosampler. A 40 μL volume of each sample was injected onto a Thermo Hypersil GOLD C18 column (2.1×50 mm, 5 um). SEQ ID NO:3 and SEQ ID NO:6 were eluted by a gradient over 3 minutes with acetonitrile and water containing 0.05% trifluoroacetic acid. The Quattro Micro mass spectrometer was run in multiple reaction monitoring (MRM) mode using the mass transitions of 764>182 and 682>136 for SEQ ID NO:3 and SEQ ID NO:6 respectively. Using this methodology, SEQ ID NO:3 was dosed orally and by IV to rats at 10 mg/kg. […] To determine the oral biovailability of SEQ ID NO:6, this peptide was dosed to rats at 10 mg/kg. In this experiment, the limit of detection (LOD) for SEQ ID NO:6 was 0.78 nM. SEQ ID NO:6 was detected at all time points for the intravenous dose and was not detected beyond 240 min for the oral dose. For non-detected values, the LOD was used as an upper estimate of the concentration of SEQ ID NO:6. The calculated value for AUCp.o., (0-6h) was […] and AUCi.v., (0-6h) was 1,590,000 nM-min. The 6 h bioavailability of SEQ ID NO:6 determined by circulating plasma levels was 0.08%

carboxypeptidase A = assay: in vitro proteolytic stability: carboxypeptidase A
Protocol: The stability of SEQ ID NO:3 in the presence of several mammalian digestive enzymes was determined. SEQ ID NO:3 was exposed to a variety of in vitro conditions including digestive enzymes and low ph environments designed to simulate gastric fluid. SEQ ID NO:3 was incubated with chymotrypsin, trypsin, pepsin, aminopeptidase, carboxypeptidase A, and simulated gastric fluid (sgf) at ph 1.0. Samples were collected at 0, 3, and 24 h for all conditions except pepsin digestion and the SGF. For the latter two conditions, samples were obtained at 0, 1, and 3 h. Negative control samples were prepared for initial and final time points. A separate, positive activity control was run in parallel to SEQ ID NO:3. All samples were analyzed by LC/MS
Five (5) μL of a 40 μg/mL carboxypeptidase inhibitor (carboxypeptidase inhibitor from potato tuber (Sigma-Aldrich, C0279) stock was added to each control sample (0 and 24 h), for a final concentration of 0.4 μg/mL. All control and test (0, 3 and 24 h) samples were incubated at 37° C. for 5 min. Twenty (20) μL of a 0.01 mg/mL carboxypeptidase A (Carboxypeptidase A from human pancreas; Sigma-Aldrich, C5358) stock was added to each sample. The samples were returned to the 37° C. water bath. The reaction was quenched with 5 μL of a 40 μg/mL carboxypeptidase inhibitor at the proper time point. No extra carboxypeptidase inhibitor was added to the control samples since there was already inhibitor present. Samples were subsequently flash frozen in liquid nitrogen, and stored at −80° C. until analysis. Upon analysis, samples were thawed and transferred to a 1 mL 96-well deep microtiter plate. […] These standards were used to generate a standard curve for quantification of samples. When necessary, the standard curves were also used to calculate the concentration of the corresponding digestion product. Ten (10) μL injections were made of each sample and standard. […] For the SEQ.
To further study the SEQ ID NO:3 carboxypeptidase A digestion product, samples of 0.01 mg/mL SEQ ID NO:3 were prepared in the carboxypeptidase A reaction buffer at a total volume of 500 μL in 2 mL eppendorf tubes. Triplicate samples were prepared for the following time points: 0, 15, 30, 60, 120, 180 and 240 min. The samples were incubated at 37° C. for 5 min. Twenty (20) μL of a 0.01 mg/mL carboxypeptidase A stock were added to each sample and returned to the 37° C. water bath. The reactions were quenched with 5 μL of a 40 μg/mL carboxypeptidase inhibitor at the proper time points. Samples were subsequently flash frozen in liquid nitrogen, and stored at −80° C. until analysis. Upon analysis, samples were thawed and transferred to a 1 mL 96-well plate. Standards of SEQ ID NO:3 were prepared in carboxypeptidase A reaction buffer at 0.625, 1.25, 2.50, 5.00, and 10.00 μg/mL concentrations. These standards were used to generate a standard curve for quantification of samples. When necessary, the standard curves were also used to calculate the concentration of the corresponding digestion product. Ten (10) μL injections were made of each sample and standard. If the formation of a digestion product was evident, then a spectral analysis was used to determine the mass of the digestion product, and predict its possible identity.

## C[C@@H]1NC(=O)[C@@H]2CCCN2C(=O)[C@H](CC(N)=O)NC(=O)[C@@H]2CSSC[C@H](N)C(=O)N[C@H]3CSSC[C@H](NC1=O)C(=O)N[C@@H]([C@@H](C)O)C(=O)NCC(=O)N[C@H](C(=O)O)CSSC[C@H](NC(=O)[C@H](Cc1ccc(O)cc1)NC(=O)[C@H](CCC(=O)O)NC3=O)C(=O)N2 [SEQ ID NO:6] (H-CCEYCCNPACTGC-OH; disulfide 1-6, 2-10, 5-13)
[1]; iv, rats, SEQ ID NO:3 10 mg/kg IV, metabolite, read-out: AUC for SEQ ID NO:6 in SEQ ID NO:3 intravenously dosed rats (converted)
  AUC: 0.0597 µM·h
[1]; iv, rats, SEQ ID NO:6 10 mg/kg intravenous, read-out: AUCi.v., (0-6h) (converted)
  AUC: 26.5 µM·h
[1]; rats, LCMS
  bioavailability: 0.08%
[1]; po, rats, SEQ ID NO:3 10 mg/kg oral, metabolite, read-out: AUC for SEQ ID NO:6 in rats dosed orally with SEQ ID NO:3 (converted)
  AUC: 0.0036 µM·h
[1]; po, rats, SEQ ID NO:6 10 mg/kg oral, LOD used for non-detected values, read-out: AUCp.o., (0-6h)
  AUC: < 0.0218 µM·h
[1]; rats dosed with SEQ ID NO:3
  detection as metabolite in plasma: detected in the plasma
[1]; rats, SEQ ID NO:6 10 mg/kg oral, LOD 0.78 nM
  last time detected in plasma after the oral dose: ≤ 240 min
Carboxypeptidase A; T0
  average concentration of SEQ ID NO:6 (digestion product of SEQ ID NO:3): 108 (+/−2) nM

## C[C@@H]1NC(=O)[C@@H]2CCCN2C(=O)[C@H](CC(N)=O)NC(=O)[C@@H]2CSSC[C@H](N)C(=O)N[C@H]3CSSC[C@H](NC1=O)C(=O)N[C@@H]([C@@H](C)O)C(=O)NCC(=O)N[C@H](C(=O)N[C@@H](Cc1ccc(O)cc1)C(=O)O)CSSC[C@H](NC(=O)[C@H](Cc1ccc(O)cc1)NC(=O)[C@H](CCC(=O)O)NC3=O)C(=O)N2 [SEQ ID NO:3] (H-CCEYCCNPACTGCY-OH; disulfide 1-6, 2-10, 5-13; N-terminus and C-terminus assumed)
[1]; iv, rats, 10 mg/kg IV, LCMS, read-out: AUC of SEQ ID NO:3, intravenously administered (converted)
  AUC: 12.3 µM·h
[1]; rats, LCMS
  bioavailability: 0.11%
[1]; po, rats, 10 mg/kg oral, LCMS, read-out: AUC of SEQ ID NO:3, orally dosed (converted)
  AUC: 0.0129 µM·h
[1]; rats, SEQ ID NO:3 10 mg/kg, LCMS
  6 h bioavailability when AUC values for SEQ ID NO:6 are included: 0.13%
Carboxypeptidase A; Carboxypetidase A, 37° C., up to 24 h
  Cleavage of SEQ ID NO: 3 by proteolytic substance: Yes
Carboxypeptidase A; T0, carboxypeptidase A time course
  SEQ ID NO:3 average concentration: 5115 (+/−121) nM
Carboxypeptidase A; T240 (240 min)
  SEQ ID NO:3 average concentration: 4438 (+/−188) nM
Carboxypeptidase A; T24 h samples
  average calculated SEQ ID NO:3 product concentration: 1.3 (+/−0.04) μg/mL
Carboxypeptidase A; all samples (0, 3, 24 h and controls)
  SEQ ID NO:3 calculated concentration: 8.4 (+/−1.2) μg/mL
Carboxypeptidase A; time 0 control (with inhibitor)
  calculated concentration of the SEQ ID NO:3 products: 0.8 (+/−0.02) μg/mL
Carboxypeptidase A; time 0 samples
  calculated concentration of the SEQ ID NO:3 products: 0.8 (+/−0.01) μg/mL
